Assay results reported in patent US11702402B2, “Small molecules that block proteasome-associated ubiquitin receptor RPN13 function and uses thereof” (DANA-FARBER CANCER INSTITUTE, INC., priority 2018, dated 2023).
Entries after “also recorded” stand apart in the source; their conditions may differ.

Columns and labels:
[1] = system: MM.1S Len-resistant cells; assay: MM.1S lenalidomide-resistant cell viability; format: cell-based, Human; details: 72 hours
Source text: The experiment was repeated twice and JQRA concentration was increased (as indicated) at the second time.

RPN13 = RPN13 (Homo sapiens, UniProt Q16186); assay: RPN13 AlphaScreen (Rpn13 / biotinylated polyUb recognition); format: binding; details: RA190 as positive control
Method: Assays were performed with minimal modifications from the manufacturer's protocol (PerkinElmer, USA). All reagents were diluted in 50 mM HEPES, 150 mM NaCl, 0.1% w/v BSA, 0.01% w/v Tween20, pH 7.5, and allowed to equilibrate to room temperature prior to addition to plates. After addition of Alpha beads to master solutions, all subsequent steps were performed under low light conditions. A 2× solution of components with final concentrations of RPN13 at 670 nM, Ni-coated Acceptor Bead at 20 μg/ml, and 5 nM biotinylated-poly-Ub K48-linked chains (UCB-230, BostonBiochem, USA) was added in 10 μL to 384-well plates (AlphaPlate-384, PerkinElmer, USA). Plates were spun down at 150×g, and 100 nL of compound in DMSO from stock plates were added by pin transfer using a Janus Workstation (PerkinElmer, USA). The streptavidin-coated donor beads (20 μg/ml final) were added, as with previous the solution, in a 2×, 10 μL volume. Following this addition, plates were sealed with foil to prevent light exposure and evaporation. The plates were spun down again at 150 g. Plates were incubated at room temperature for 1 hour, and then read on an Envision 2104 (PerkinElmer, USA), using the manufacturer's protocol.
Several experiments were performed to confirm the specificity of WL40. […] It was then examined whether the bivalent molecule, WL40, can bind to Rpn13. […]

[2] = system: polyubiquitinated (PolyUb) protein; assay: Polyubiquitinated protein immunoblot in MM.1S and ANBL6.BR cells; format: cell-based, Human; details: MM.1S: WL40 200 nM, RA190 300 nM, bortezomib 5 nM; ANBL6.BR: WL40 1 μM 6 hours
Method: MM.1S cells, which were treated with DMSO control, bortezomib, or WL40 at indicated concentration for 3 hours; protein lysates were analyzed for different proteasome activities (CT-L, chymotrypsin-like; T-L, trypsin-like; C-L, caspase-like). FIG. 20B is a bar graph showing percent proteasome activity after normalization with DMSO control (mean±SD; n=3). Recombinant 20S proteasome was incubated with DMSO, bortezomib, or WL40 for 30 minutes, followed by assessment of the above-noted proteasome activities. FIG. 20C MM.1S cells were pretreated with exemplary proteasome inhibitor MG132 (10 μM) for 1 hour, followed by addition of WL40 (400 nM) for 8 hours. […] Total protein lysates were subjected to immunoblots for Rpn13 and α-tubulin. […] FIG. 20E ANBL6.BR cells were treated with WL40 (400 nM) or RA190 (500 nM) for 16 hours; protein lysates were subjected to immunoblot analysis using anti-Rpn13 or anti-β-actin Abs.
Cellular protein extracts were prepared using RIPA lysis buffer (50 mM Tris-HCl, 150 mM NaCl, 1% NP-40, 0.5% sodium deoxycholate, and 0.1% SDS). […]
Next, the effect of WL40 on additional MM cell lines, including p53-mutated RPMI-8226 cells or bortezomib-resistant ANBL6.BR cells, was evaluated. […]

MM.1R cells = assay: MM.1R cell viability (WST); format: cell-based, Human; details: MM.1R (dexamethasone-resistant), 48 hours
Source text: The IC50 of WL40 for cell lines is shown.

Sequence of RPN13 (Q16186 whole entry): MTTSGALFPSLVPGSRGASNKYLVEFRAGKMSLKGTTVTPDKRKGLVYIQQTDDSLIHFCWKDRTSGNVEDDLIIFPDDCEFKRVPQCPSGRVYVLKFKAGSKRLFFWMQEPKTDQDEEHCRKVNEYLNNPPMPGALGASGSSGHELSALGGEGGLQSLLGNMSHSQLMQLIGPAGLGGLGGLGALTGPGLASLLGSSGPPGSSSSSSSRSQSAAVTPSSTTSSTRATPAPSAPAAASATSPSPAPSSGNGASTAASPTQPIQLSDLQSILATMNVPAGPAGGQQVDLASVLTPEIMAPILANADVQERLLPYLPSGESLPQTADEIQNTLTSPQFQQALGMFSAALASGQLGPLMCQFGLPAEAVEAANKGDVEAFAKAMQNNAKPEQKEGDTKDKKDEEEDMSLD

SMILES	cytotoxicity (percentage of viable cells) [1]	Rpn13 binding (RPN13)	PolyUb protein accumulation (immunoblot) [2]	cytotoxicity (cell viability) (MM.1R cells)
Cl.N[C@@H](Cc1ccccc1)C(=O)N1C/C(=C/c2ccc(Cl)c(Cl)c2)C(=O)/C(=C\c2ccc(Cl)c(Cl)c2)C1 [RA190, reference compound]	more robust MM cytotoxicity			
O=C1CCC(N2C(=O)c3cccc(NCCOCCOCCOCCC(=O)N[C@@H](Cc4ccccc4)C(=O)N4C/C(=C\c5ccc(Cl)c(Cl)c5)C(=O)/C(=C/c5ccc(Cl)c(Cl)c5)C4)c3C2=O)C(=O)N1 (stereo partly shown) [WL40]		binds to Rpn13	marked increase in PolyUb proteins; also recorded: more rapid and higher molecular weight PolyUb versus bortezomib	more cytotoxic than the parental Rpn13 inhibitor RA190
